In data set [1] the test system is PDH. Kind of data set: PDH activity by 13C-MR detection (13C-bicarbonate to 13C-pyruvate ratio) in STZ Type 1 diabetes model. The class given is in vivo, male Wistar rats. To be noted: single i.p. injection 50 mg/kg, five days after induction, rat heart, each rat its own control. As for the experimental part: Initial PDH activity (baseline) was determined in a first group of 6 rats according to Example 3. […] Five days after STZ-diabetes induction, PDH activity was determined again, each rat served as its own experimental control.
(§1) All rats were anaesthetised using isofluorane (2% in oxygen) and kept on a heated mat. Care was taken to maintain body temperature at 37° C. A catheter was introduced into the tail vein, and rats were then placed in a home-built animal handling system. ECG, respiration rate, and body temperature were monitored, and air heating was provided. Anaesthesia was continued by means of isofluorane (1.7%) delivered to a nose cone.
1 cm^3 of the imaging medium as prepared in Example 1 was injected over 10 s via the tail vein catheter in the anaesthetised rat. […]
(§2) The series of cardiac ^13C MR spectra were analysed using the AMARES algorithm as implemented in the jMRUI software package (Naressi et al., Computers in Biology and Medicine, 31(4), 2001, 269-286 and Naressi et al., Magnetic Resonance Materials in Physics, Biology and Medicine, 12(2-3), 2001, 141-152). […]
Maximum pyruvate peak area was calculated for each series of spectra, and was used to calculate maximum bicarbonate/pyruvate ratio. […] Parameters describing the kinetic progression of bicarbonate, namely time to appearance, time to maximum, and decay time to half maximum were also calculated.

Data set [2] in a line: T1 relaxation of 13C1-pyruvate in human full blood. To be noted: human full blood at 37° C. The class given is physicochemical.
Data set [3] has as its system PDH. Kind of data set: PDH flux by cardiac 13C-MR with imaging medium with or without malate, fed and fasted rats. To be noted: 40 μmol hyperpolarised 13C-pyruvate alone, fasted vs fed rats. It is filed as in vivo, male Wistar rats. As for the experimental part:
as §1
A home-built ^1H/^13C butterfly coil was fit over the rat chest, localising signal from the heart. Rats were positioned in a 7 T horizontal bore MR scanner interfaced to a Varian Inova console. Correct positioning was confirmed by the acquisition of an axial proton FLASH image (TE/TR=1.17/2.33 ms, Matrix size=64×64, FOV=60×60 mm, Slice thickness=2.5 mm, Excitation flip angle=15°). […]
as §2
Maximum pyruvate peak area was calculated for each series of spectra, and was used to calculate maximum bicarbonate/pyruvate ratio. […] Parameters describing the kinetic progression of bicarbonate, namely time to appearance, time to maximum, and decay time to half maximum were also calculated. […]

Turning to `CN(N=O)C(=O)N[C@H]1C(O)O[C@H](CO)[C@@H](O)[C@@H]1O` (mixture of isomers) [STZ, Streptozotocin], the “ratio of the 13C-bicarbonate to 13C-pyruvate peak amplitude / PDH activity, before vs after STZ injection” value in data set [1] is recorded as “decrease in PDH activity”. For `CC(=O)C(=O)O` [^13C1-pyruvate, sodium ^13C1-pyruvate], the T1 relaxation result in data set [2] is recorded as “about 42 s”. Besides, the “PDH flux lower in fasted rats compared with fed rats” value in data set [3] was determined as 55%.

Source of the values: patent publication US20110033387A1, “METHOD OF DETERMINATION OF PDH ACTIVITY AND IMAGING MEDIA FOR USE IN SAID METHOD” (GE HEALTHCARE LIMITED, priority 2007, published 2011).
